Publication PMC6923452, “SHBG141–161 Domain-Peptide Stimulates GPRC6A-Mediated Response in Leydig and β-Langerhans cell lines” (Scientific Reports, 2019)
“Also recorded” adds a separate entry of the source. No end group written: not given here.

Key:
MA-10 cells = test: Testosterone (T) release from Leydig MA-10 cells (GPRC6A-mediated); assay type: cell-based, Mouse; settings: for agonist activity (T release) after GPRC6A blockade: pre-incubation with anti-GPRC6A polyclonal antibodies 20 mg/mL, 30 minutes at 37 °C; for T release vs basal: 48 hours; for effect of SHBG pre-incubation on T release induced by SHBG141–161: then SHBG141–161 10^−11M
Procedure: Human ucOCN was obtained from chemical decarboxylation of cxOCN, purchased from Bachem AG (Bachem, Bubendorf, Switzerland), as previously described. For displacement experiments, an aliquot ucOCN underwent chemical biotinylation as previously described[9],[41]. Unliganded human SHBG was purchased by […], Belgium). Human chorionic gonadotropin Gonasi was purchased by IBSA Farmaceutici Srl (Italy). Mouse Leydig-carcinoma cell line MA-10 (passage number 3 to 8; ATCC®; RRID: CRL-1573) were cultured on 0,1% gelatin/PBS-coated plasticware according to the manufacturer's instructions and maintained in DMEM:F12 Medium (ATCC®; RRID: 30-2006; pH 7,4) supplemented with additional 20 mM HEPES and horse serum to a final concentration of 15%. For immunofluorescence experiments, cells were let attach on 0,1% gelatin/PBS-coated round-coverslips (ø 13 mm, Menzel-Gläser-VWR International Srl, Milan, Italy) and then washed and fixed with 4% paraformaldehyde/PBS solution at room temperature for 15 min. After membrane permeabilization with 1% Triton X/PBS solution for 10 min at room temperature, cells were saturated with 5% bovine serum albumin/5% normal donkey serum/PBS solution for 1 hour and then incubated with rabbit-polyclonal anti-mouse GPRC6A IgG (dilution 1:200; Santa Cruz Biotechnology Inc. Heidelberg Germany; RRID: sc-67302,) and goat-polyclonal anti-human INSL3 IgG (dilution 1:200; Santa Cruz Biotechnology Inc; RRID: sc-48550) at 4 °C overnight. After extensive washing, primary immunoreaction was detected by appropriate secondary reagent, respectively: biotin conjugated-anti rabbit IgG (dilution 1:100; Vector Laboratories, Peterborough, UK; RRID: BA-1000) followed by Streptavidin […], (dilution 1:100; GeneTex/Prodotti Gianni, Milano, Italy; RRID: GTX85907) and FITC conjugated-anti goat IgG (dilution 1:100; Abcam, Milan, Italy; RRID: ab6737). Samples were then counterstained with 4',6-diamidino-2-phenylindole (DAPI), mounted with anti-fade buffer and then analyzed with Video-Confocal (VICO) fluorescence microscope (Nikon, Firenze, Italy). […] RRID: KGE010) according to manufacturer's instructions. Receptor blockade experiments were performed by pre-incubating cultured cells with anti-GPRC6A polyclonal antibodies (final concentration of […]; Santa Cruz Biotechnology Inc; RRID: sc-67302) for 30 minutes at 37 °C as previously described.

GPRC6A [1] = test: Displacement of labelled ucOCN by SHBG141–161 on HEK-293 cells transfected with human Gprc6a; assay type: binding; settings: for staining signal for labelled ucOCN vs ucOCN alone: 1 nM biotinylated ucOCN, 1 h room temperature, binding buffer pH 7.4, streptavidin-FITC, image analysis, mean of 3 independent experiments
Procedure: The binding of SHBG141–161 to GPRC6A was assessed by displacement experiments as previously described. To this aim, HEK-293 cells were transfected with human Gprc6a gene (Fig. 2C-I,II). The efficiency of the procedure was evaluated by real-time PCR, allowing the identification of a specific signal for Gprc6a gene only in transfected cells. Accordingly, a specific membrane signal was observed by immunostaining only in transfected cells. On these bases, HEK-293 cells transfected with Gprc6a gene were incubated with 1 nM labelled ucOCN and SHBG141–161 at the concentration of 0, 10 nM (10×) and 100 nM (100×) (Fig. 2D-I,II).
Human embryonic kidney (HEK)-293T cells (passage number 11 to 15) were obtained from the American Type Culture Collection (ATCC®-LGC Standards Sesto San Giovanni, MI, Italy) and cultivated in DMEM [ATCC®; RRID 30–2002) and supplemented with 10% fetal bovine serum (Euroclone, Milano, Italy; RRID: ECS0180L) and 1%antibiotic/antimycotic mixture in a humidified incubator at 37 °C with 5% CO2. Expression vector containing wild-type (WT) human GPRC6A cDNA (OriGene Technologies, Inc) was used according to manufacturer’s instruction. Briefly, cultured HEK- 293 T cells at 70% of confluence were transfected by FuGENE 6 (Roche Diagnostics) with 1 μg/well of GPRC6A-pcDNA and maintained for 48 hours, followed by overnight starving in serum-free condition to achieve quiescence. HEK-293T cells transfected with empty vector were used as negative controls. Starved cells were fixed in 1% paraformaldehyde and used for binding assessment by incubation for 1 h at room temperature with biotinylated ucOCN, with or without SHBG141–161 in ice-cold-binding buffer (50 mM Tris-HCl [pH 7.4], 10 mM MgCl2, 0.1 mM EDTA, and 0.1% BSA) according to the different experimental conditions used. After extensive washing in cold PBS, samples were incubated with streptavidin-Fluorescein isothiocyanate (FITC) (dilution 1:200; Sigma-Aldrich; RRID: S3762). Evaluation of GPRC6A expression by immunofluorescence was performed as described for β-TC6 (see below). Computer assisted image analysis was performed by the ImageJ image analysis software, powered by routines specifically developed by our group as previously described[43],[44]. […]

β-TC6 cells = test: Insulin release from Langerhans β-TC6 cells (GPRC6A-mediated); assay type: cell-based, Mouse; settings: for agonist activity (insulin release) after GPRC6A blockade: pre-incubation with anti-GPRC6A polyclonal antibodies 20 mg/mL, 30 minutes at 37 °C; for insulin release vs basal: 2 hours at 37 °C in 3 mM glucose/HBSS; for effect of SHBG pre-incubation on insulin release induced by SHBG141–161: then SHBG141–161 10^−11M
GPRC6A [2] = tested on: GPRC6A; parameters: method as in 2 sources, ref 5 = [5]; PMID 15576628; doi:10.1124/mol.104.007559; 5. Wellendorph P Deorphanization of GPRC6A: a promiscuous L-alpha-amino acid receptor with preference for basic amino acids Molecular Pharmacology 2005 67 3 589 97 10.1124/mol.104.007559 15576628 ||| ref 6 = [6]; PMID 20947496; doi:10.1074/jbc.M110.158063; 6. Pi M Parrill AL Quarles LD GPRC6A mediates the non-genomic effects of steroids Journal of Biological Chemistry 2010 285 51 39953 64 10.1074/jbc.M110.158063 20947496 PMC3000977; settings: cited from earlier work
[3] = Far-UV circular dichroism; assay type: physicochemical; settings: 25 °C, PBS (20 mM sodium phosphate, pH 7.4, 0.1 M NaCl), 70 μg/ml
Procedure: The conformational properties of SHBG141–161 were investigated by far-UV circular dichroism (CD) on a Jasco J-710 spectropolarimeter, equipped with a Peltier temperature control system. The molar concentration of the peptide was determined spectrophotometrically by recording the absorbace at 257 nm, using an absorptivity value for phenylalanine of 200 M-1·cm-1. CD spectra were recorded at 25 °C in a 1-mm pathlength quartz cell at a scan-speed of 10 nm/min, with a response time of 16 sec, and resulted from the average of two accumulations after baseline subtraction. CD signal was expressed as the mean residue ellipticity (θ) = θobs·MRW/(10·l·c), where θobs is the observed signal in degrees, MRW is the protein mean residue weight, l is the cuvette pathlength in cm, and c is the protein concentration in g/ml.

[4] = tested on: extracellular domain of GPRC6A; settings: previous study; immunoprecipitation assays; cited from earlier work
Description: To this regard, our group recently reported that sex hormone-binding protein (SHBG), the major blood carrier of T, is able to bind the extrace ... || If on one hand these represent encouraging results about the reliability of GPRC6A as therapeutic target, on the other hand, drug peptides and biologics drown great interest for their favorable safety profile, target specificity and pharmacokinetics compared with traditional small-molecule drugs. To this regard, the metabotropic receptor GPRC6A has been widely investigated as the mediator of non-genomic effects of androgens.

[5] = SHBG141–161 concentrations greater than 10^−9 M, preliminary experiments, data not shown
[6] = SHBG 10^−14-10^−9M, any of the concentration tested
[7] = increasing SHBG, 1 hour at 37 °C

ucOCN: Human ucOCN was obtained from chemical decarboxylation of cxOCN, purchased from Bachem AG (YLYQWLGAPVPYPDPLEPRREVCELNPDCDELADHIGFQEAYRRFYGPV; ends and bridges not checked; also: undercarboxylated by chemical decarboxylation of carboxylated OCN; UniProt P02818 52-100, looked up)
agonist activity (T release) after GPRC6A blockade (MA-10 cells): completely abolished the agonist activity
T release vs basal (MA-10 cells; ucOCN 0,5–2 nM): progressive and significant increase of T release
membrane signal of labelled ucOCN alone, transfected cells (GPRC6A [1]; 1 nM labelled ucOCN, HEK-293 + GPRC6A): clear membrane signal associated with GPRC6A expression
staining of labelled ucOCN, non-transfected cells (GPRC6A [1]; 1 nM labelled ucOCN, HEK-293 without GPRC6A): absence of significant staining in non-transfected cells
agonist activity (insulin release) after GPRC6A blockade (β-TC6 cells): completely abolished the agonist activity
insulin release vs basal (β-TC6 cells; ucOCN 0,5–2 nM): significant and dose dependent increase of insulin release

C[C@]12CC[C@H]3[C@@H](CCC4=CC(=O)CC[C@@]43C)[C@@H]1CC[C@@H]2O [T, testosterone]
non-genomic action mediated by GPRC6A (GPRC6A [2]): mediator of non-genomic action of T

magnesium
activation of GPRC6A (GPRC6A [2]): activated

NCCCC[C@H](N)C(=O)O [L-lysine]
activation of GPRC6A (GPRC6A [2]): activated

zinc
activation of GPRC6A (GPRC6A [2]): activated

N=C(N)NCCC[C@H](N)C(=O)O [L arginine]
activation of GPRC6A (GPRC6A [2]): activated

calcium
activation of GPRC6A (GPRC6A [2]): activated

IALGGLLFPASNLRLPLVPAL [SHBG141–161]
T release vs basal (MA-10 cells; SHBG141–161, particularly 10^−13 to 10^−11M, five independent experiments): increase of T release
T release at high concentration (MA-10 cells; [5]): not effective
agonist activity (T release) after GPRC6A blockade (MA-10 cells): completely abolished the agonist activity
conformation by far-UV CD [3]: random or non-regular conformation
far-UV CD minimum [3]: 200 nm
competition with ucOCN for binding to GPRC6A (overall result) (GPRC6A [1]; 0, 10 nM and 100 nM SHBG141–161, 1 nM labelled ucOCN): progressive reduction of the signal for labelled ucOCN; also recorded: compete with ucOCN for the binding to GPRC6A; also recorded: partial competition activity
staining signal for labelled ucOCN vs ucOCN alone (GPRC6A [1]; SHBG141–161 10 nM (10×)): significant reduction of the staining signal for ucOCN
staining signal for labelled ucOCN vs ucOCN alone (GPRC6A [1]; SHBG141–161 100 nM (100×)): significant reduction of the staining signal for ucOCN
insulin release vs basal (β-TC6 cells; SHBG141–161 10^−13 to 10^−10 M, five independent experiments): significant increased insulin levels in culture supernatants
insulin release at high concentration (β-TC6 cells; [5]): not effective
agonist activity (insulin release) after GPRC6A blockade (β-TC6 cells): completely abolished the agonist activity

B1: SHBG: Unliganded human SHBG was purchased by Affiland; the major blood carrier of T (protein, UniProt P04278 30-402, looked up)
Sex hormone-binding globulin: LRPVLPTQSAHDPPAVHLSNGPGQEPIAVMTFDLTKITKTSSSFEVRTWDPEGVIFYGDTNPKDDWFMLGLRDGRPEIQLHNHWAQLTVGAGPRLDDGRWHQVEVKMEGDSVLLEVDGEEVLRLRQVSGPLTSKRHPIMRIALGGLLFPASNLRLPLVPALDGCLRRDSWLDKQAEISASAPTSLRSCDVESNPGIFLPPGTQAEFNLRDIPQPHAEPWAFSLDLGLKQAAGSGHLLALGTPENPSWLSLHLQDQKVVLSSGSGPGLDLPLVLGLPLQLKLSMSRVVLSQGSKMKALALPPLGLAPLLNLWAKPQGRLFLGALPGEDSSTSFCLNGLWAQGQRLDVDQALNRSHEIWTHSCPQSPGNGTDASH
effect of SHBG pre-incubation on T release induced by SHBG141–161 (MA-10 cells; SHBG 10^−12M, 1 hour at 37 °C): complete blunt of the secretory stimulating activity
effect of SHBG pre-incubation on T release induced by SHBG141–161 (MA-10 cells; SHBG 10^−13M, 1 hour at 37 °C): significant reduction of T release; also recorded: significantly blunted
induction of T release by SHBG alone (MA-10 cells; [6]): ineffective
effect of SHBG pre-incubation on T release induced by hCG (MA-10 cells; SHBG, any of the concentration tested, 1 hour at 37 °C, then hCG 2,5 nM): negligible effect on T and insulin release
effect of SHBG pre-incubation on T release induced by SHBG141–161 (MA-10 cells; [7]): progressive reduction of T and insulin release
binding to GPRC6A [4]: simple binding observed through immunoprecipitation assays; also recorded: able to bind the extracellular domain of GPRC6A
effect of SHBG pre-incubation on insulin release induced by SHBG141–161 (β-TC6 cells; SHBG 10^−12M, 1 hour at 37 °C): complete blunt of the secretory stimulating activity
induction of insulin release by SHBG alone (β-TC6 cells; [6]): ineffective
effect of SHBG pre-incubation on insulin release induced by IBMX/glucose (β-TC6 cells; SHBG, any of the concentration tested, 1 hour at 37 °C, then 15 mM glucose + 100 μM IBMX): negligible effect on T and insulin release
effect of SHBG pre-incubation on insulin release induced by SHBG141–161 (β-TC6 cells; [7]): progressive reduction of T and insulin release
